Consider seven molecules from patent US8153693B2, “Compounds for the selective treatment of the intestinal immuno-inflammatory component of the celiac disease” (Giuliani International Limited, priority 2007, dated 2012).

“Also recorded” adds a separate entry of the source.

For data set [1], the system named is HT-29 STD cells. The data set can be described thus: Cytotoxic effect on epithelial cells seen in the HT-29 experiments. Type of data set: cell-based. As to conditions: 30 mM. As to the method:
After 24 h of culture, HT-29 STD cells were treated during 24 h with the compounds A, B, C, D and F, at 30 mM. […] The pH of the drug solutions was adjusted to 7.4 with NaOH. Cells were fixed in PFA 4%, permeabilized in PBS containing 0.1% Triton X-100™ at 4° C. and then incubated with goat normal serum and blocking buffer (1% BSA in PBS) to minimize non-specific adsorption of the antibody.
(§1) After 24 h of culture, HT-29 STD cells were treated during 24 h with the compounds A, B, C, D, F, at a concentration of 30 mM. […] The pH of the drug solutions was adjusted to 7.4 with NaOH. Cells undergoing apoptosis were identified by enzymatic labelling of DNA strands using a terminal transferase dUTP nick end labelling assay (TUNEL assay, Roche Diagnostics™, Meylan, France). Counts of at least 500 cells/sample were systematically performed blindly in one experiment. The results were expressed as the mean±SEM of the number of stained cells.

Data set [2] relates to PPARγ. The experiment in a line: PPARγ expression by western blot in HT-29 cells. Type of data set: cell-based. As to conditions: for induction of PPARγ expression at the protein levels (in words): HT-29 cell line; for mean induction of PPARγ protein levels quantified by western blot: cells treated during 24 hours. Here is the method:
(§2) The colon cell line HT-29 STD (ATCC HTB-38) was routinely grown in DMEM supplemented with 10% heat-FCS, and antibiotics. Cells were grown in monolayers, incubated at 37° C. in 5% CO2 and 95% relative humidity.
The total proteins were obtained by cell homogenization in an extraction buffer consisting of PBS with 2% Triton™, Phenyl Methyl Sulphonyl Fluoride (PMSF) 100 mM and a classical protease inhibitor cocktail. The total proteins were then separated by polyacrylamide gel electrophoresis and electroblotted. Polyvinylidendifluoride (PVDF) membranes were incubated overnight with rabbit polyclonal primary antibody directed against PPARγ (dilution 1/500, TEBU, Le Perray en Yveline, France). β-actin was detected using a rabbit monoclonal primary antibody diluted at 1/10,000 (Sigma). Immunodetection with a secondary peroxidase-conjugated antibody (1/1000, Dako™, Trappes, France) and chemiluminescence was performed according to the manufacturer's protocol (ECL™, Amersham Pharmacia Biotech™, Orsay, France). Optical density values of PPARγ were given for each condition in proportion to the quantity of the internal control β-actin in the same sample.
For orientation: In western blotting, separated proteins are transferred to a membrane and probed.

The target in data set [3] is T1, PPARγ (Homo sapiens, UniProt P37231).
T1 construct: HT-29 STD cells were transiently transfected using the Effectene™ transfection reagent; endogenous in cells; host or cells: HT-29 STD (ATCC HTB-38)
T1 sequence (P37231 1-505): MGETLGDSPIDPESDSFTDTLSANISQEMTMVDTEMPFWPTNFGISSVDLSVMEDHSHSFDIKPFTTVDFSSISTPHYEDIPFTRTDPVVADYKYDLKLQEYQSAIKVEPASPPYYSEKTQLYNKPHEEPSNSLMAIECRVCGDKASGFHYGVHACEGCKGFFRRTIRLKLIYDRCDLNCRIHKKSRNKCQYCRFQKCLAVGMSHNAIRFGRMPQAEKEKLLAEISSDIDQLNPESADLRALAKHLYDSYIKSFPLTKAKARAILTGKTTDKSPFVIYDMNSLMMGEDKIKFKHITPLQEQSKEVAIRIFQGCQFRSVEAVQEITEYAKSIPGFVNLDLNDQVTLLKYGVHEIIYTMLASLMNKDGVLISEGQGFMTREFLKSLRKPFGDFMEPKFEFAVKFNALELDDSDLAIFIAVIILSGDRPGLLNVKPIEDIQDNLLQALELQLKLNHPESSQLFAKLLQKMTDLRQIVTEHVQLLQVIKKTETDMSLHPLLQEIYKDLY
The data set can be described thus: PPARγ activation, PPRE luciferase reporter in transfected HT-29 STD cells (Example 5). To be noted: 30 mM; for increase of the reporter gene activity: 24 hours, versus non-stimulated cells. Type of data set: cell-based. Here is the method: as §2
HT-29 STD cells were transiently transfected using the Effectene™ transfection reagent (Qiagen™) according to instructions from the manufacturer. To test PPARγ activation, we performed transfection with 500 ng of a minimal promoter construct containing two copies of PPRE obtained from the cytochrome p450 4A (2×CYP). The renilla luciferase plasmid (0.1 μg/well) was also transfected as an internal control for monitoring transfection efficiency and for normalizing the firefly luciferase activity. Transfected cells were left for 48 hours incubation at 37° C. […] The pH of the drug solutions was adjusted to 7.4 with NaOH. Total cell extracts were prepared using the Passive Lysis Buffer (Promega™, Madison, Wis.). Luciferase activity was assayed in 20 μl of the extract using the Promega™ Dual Luciferase assay system according to the manufacturer's protocol. Transfections were assayed in triplicate in at least three separate experiments. The luciferase activity was expressed as fold of the activity obtained in cells treated with the different molecules divided by luciferase activity from non-stimulated cells.
We investigated PPARγ transcriptional activity by transient transfections of epithelial cells with the renilla luciferase PPRE plasmids. Cells were stimulated with the different molecules during 24 hours.
On the technique in general: In a reporter assay the amount or activity of a reporter protein is the signal.

Data set [4] concerns HT-29 STD cells. The data set can be described thus: Detection of apoptosis, TUNEL assay. Type of data set: cell-based. As to conditions: 30 mM, 24 h. As to the method: as §1
A short description of data set [5]: Solubility of the molecules in the cell experiments. Type of data set: physicochemical. To be noted: reason for exclusion from the cell experiments.

In the case of `COc1ccc(N)cc1C(=O)NO` [A], the “cytotoxic effect on epithelial cells” value in the data set on HT-29 STD cells [1] is listed as “rapid cytotoxic effects; also recorded: direct cytotoxic effects”.

Consider `COc1cc(N)ccc1C(=O)NO` [B], for which the “cytotoxic effect on epithelial cells” value in the data set on HT-29 STD cells [1] is “rapid cytotoxic effects; also recorded: direct cytotoxic effects”.

Regarding `CCOc1ccc(N)cc1C(=O)NO` [Compound D], the “cytotoxic effect on epithelial cells” value with HT-29 STD cells [1] is “rapid cytotoxic effect; also recorded: direct cytotoxic effects”. Besides, in the data set with PPARγ [2], the “induction of PPARγ expression at the protein levels (in words)” value (“induction of PPARγ expression” below) is “induce PPARγ expression” and the “mean induction of PPARγ protein levels quantified by western blot” value (shortened to “mean induction”) was found to be 2 fold.

In the case of `CC(C)Oc1ccc(N)cc1C(=O)O` [F], at PPARγ [3], the “PPARγ activation (in words)” value is “induce PPARγ activation” and the “increase of the reporter gene activity” value is recorded as “two-fold”. The “apoptosis, share of epithelial cells (TUNEL)” value in the data set on HT-29 STD cells [4] is reported as 80%. Also, in the data set with PPARγ [2], the “induction of PPARγ expression” value is on record as “induce PPARγ expression” and the “mean induction” value was found to be 2 fold.

In the case of `CC(C)N(c1ccc(O)c(C(=O)O)c1)C(C)C` [G], the solubility result in data set [5] is given as “poor solubility”. Besides, the “cytotoxic effect on epithelial cells” value in the data set on HT-29 STD cells [1] is listed as “rapid cytotoxic effect; also recorded: direct cytotoxic effects”.

For `Nc1cc2c(c(C(=O)O)c1)OCC2` [C], at PPARγ [3], the “PPARγ activation (in words)” value is “induce PPARγ activation” and the “increase of the reporter gene activity” value is “two-fold”. Moreover, in the data set on PPARγ [2], the “induction of PPARγ expression” value is “induce PPARγ expression” and the “mean induction” value turned out to be 2 fold.

As for `CC1(C)OC(=O)c2cc(N)ccc2O1` [E], the solubility entry in data set [5] is “poor solubility”.
